What was measured:
[1] = tested on: eggs of Panonychus citri; assay: Effect on hatching of eggs of Panonychus citri, leaf disc method; format: in vivo; conditions: Panonychus citri eggs, 1 ppm, listed as 1-(R, S)
Procedure: (§1) • (1) Preparation of leaf discs containing eggs: 20 female adult mites of Tetranychus cinnabarinus were transferred onto leaf discs of Vicia faba with a diameter of 2.0 cm (with wetted filter paper at the bottom), then covered it with a lidded culture dish and cultivated under moisturizing conditions, the adult mites were removed within 36 hours and microscopic examination and counting were performed on leaf discs containing eggs. • (2) Investigation of egg population base: Before pesticide soaking, a microscopic examination was conducted on the egg basic number of each leaf disc, with 2 replicates set for each treatment. • (3) Pesticide soaking treatment: The leaf butterflies loaded with mite eggs were soaked in clear water and sulfite compounds for 10 seconds, respectively, then taken out and cultivated under moisturizing conditions. Each treatment should be repeated for no less than 3 times. • (4) Cultivation and observation: The […] were cultivated under normal conditions. Five days after insecticide delivery, the hatching status of mite eggs was investigated. • Note: The temperature and humidity conditions of the constant temperature and humidity incubator after the treatment should be controlled so as to avoid excessive temperature differences, which may cause generation and dripping of condensate water in the culture dish, resulting in abnormal death of eggs due to soaking in water; it is also necessary to ensure sufficient strong ambient light, without directing irradiating the leaves. • (5) Survey of Results: The experimental materials of each treatment group were regularly hydrated and moisturized, and the hatching of eggs was observed. On the 7th day after insecticide delivery, the number of hatched eggs for each treatment was recorded, and the survey of results was recorded in the original notebook. According to the experimental requirements and characteristics of agents, the survey time can be shortened or extended.
(§2) • 1) Surveying and recording the number of hatched eggs for each treatment. • 2) Photographing and recording whether there was any pesticide damage to the leaf discs of Vicia faba. • 3) Recording the developmental status of experimental mite eggs, behavior status of nymph mites, including abnormal phenomena such as delayed or stopped development of mite eggs, difficulty in breaking hull for nymph mites, or painful struggles after hatching, etc. • (6) Calculation method: Based on the survey data, the prevention and control effect of each treatment was calculated according to the following formula, and the calculation results were kept to two decimal places.
This test adopted the method in Test Example 1 of technical section, mainly used leaf disc method to explore the effect on hatching of eggs of Panonychus citri by compounds 1-(S,S), 1-(S,R), 1-(R,R), 1-(R,S), 1′-(S,S), 1′-(S,R), 1′-(R,R), 1′-(R,S), compound 1, compound 1′, S-10, R-10, S-10′, R-10′, compound 10, compound 10′, compound 19-(S,S), 19-(S,R), 19-(R,R), 19-(R,S), 19′-(S,S), 19′-(S,R), 19′-(R,R), 19′-(R,S), compound 19, and compound 19′. The concentration of all compounds was 1 ppm.

[2] = tested on: eggs of Aleyrodidae; assay: Effect on hatching of eggs of Aleyrodidae, leaf disc method; format: in vivo; conditions: Aleyrodidae eggs, 10 ppm, listed as 1-(R, S)
Procedure: as §1, §2
This test adopted the method in Test Example 1 of technical section, mainly used leaf disc method to explore the inhibitory effect on hatching of eggs of Aleyrodidae by compounds 1-(S,S), 1-(S,R), 1-(R,R), 1-(R,S), 1′-(S,S), 1′-(S,R), 1′-(R,R), 1′-(R,S), compound 1, compound 1′, S-10, R-10, S-10′, R-10′, compound 10, compound 10′, compound 19-(S,S), 19-(S,R), 19-(R,R), 19-(R,S), 19′-(S,S), 19′-(S,R), 19′-(R,R), 19′-(R,S), compound 19, and compound 19′. The concentration of all compounds was 10 ppm.

[3] = tested on: eggs of Spodoptera litura; assay: Effect on hatching of eggs of Spodoptera litura, egg piece soaking; format: in vivo; conditions: Spodoptera litura eggs, 500 ppm, listed as 1-(R, S)
Procedure: • (1) Preparation of paper containing eggs: the egg mass was cut into small pieces, each containing about 60 eggs, soaked in a preformulated test agent for 10 minutes together with paper for egg raising (concentration of each compound of 500 ppm). After taken out, absorbent paper was used to absorb the excess solution adhered to the paper for egg raising and egg pieces. (2) Cultivation: Each egg piece was separately placed in a glass test tube (5.0 cm in height, 2.5 cm in diameter, the same below), which was sealed with plastic paper punctured with fine holes using insect needles and cultivated in an artificial climate chamber at a temperature of (24±1° C.), a relative humidity of (80±10) %, and a photoperiod of L:D=12:12. When the eggs developed until they were about to hatch, castor leaves with a diameter of about 3 cm were added for feeding the hatching larvae; • (3) Observation: the number of hatched and unhatched eggs per egg piece was checked and recorded, and the hatching rate of eggs was calculated according to the formula. Each treatment was repeated for 3 times. • (4) Survey of results: The experimental materials of each treatment group were regularly hydrated and moisturized, and the hatching of eggs was observed. On the 4th day after insecticide delivery, the number of hatched eggs for each treatment was recorded, and the survey of results was recorded in the original notebook. According to the experimental requirements and characteristics of agents, the survey time can be shortened or extended. • 1) Surveying and recording the number of hatched eggs for each treatment. • 2) Recording the developmental status of experimental eggs of Spodoptera litura, behavior status of nymphs, including abnormal phenomena such as delayed or stopped development of eggs of Spodoptera litura, etc. • (5) Calculation method: Based on the survey data, the prevention and control effect of each treatment was calculated according to the following formula, and the calculation results were kept to two decimal places. [formula] [formula]

[4] = tested on: eggs of Harmonia axyridis; assay: Effect on hatching of eggs of Harmonia axyridis, egg card immersion; format: in vivo; conditions: 100 ppm, listed as 1-(R, S)
Excerpt: The eggs of Harmonia axyridis cards (with approximately 20 eggs per card) were purchased from Henan Jiyuan Baiyun Industry Co., Ltd. in Henan Province. The number of eggs on the egg cards was counted as the basic number before insecticide delivery, and 5 cards were used as one treatment, with 3 replicates per treatment. After immersing the egg cards in a 100 ppm insecticide solution for 30 seconds, they were taken out and air dried, then cultivated under moisturizing conditions, and the […] were cultivated at 27° C. 4 days after insecticide delivery, the hatching status of eggs of Harmonia axyridis was investigated, and the prevention and control effect was calculated according to the following formula. [formula] [formula]

[5] = tested on: Magnaporthe grisea; format: cell-based; conditions: 100 ppm
[6] = 5 days after delivery, replicate 1
[7] = 5 days after delivery, replicate 2
[8] = 5 days after delivery, replicate 3

C[C@H](COS(=O)OCCF)Oc1ccc(Cl)cc1Cl (stereo partly drawn) [1-(R,S)]
Hatching rate (%), Replicate 1 [1, 6]: 7.14% | Hatching rate (%), Replicate 2 [1, 7]: 8.39% | Hatching rate (%), Replicate 3 [1, 8]: 8.14% | Number of hatched larvae 5 days after insecticide delivery, Replicate 1 ([1]; leaf disc, replicate 1): 7 | Number of hatched larvae 5 days after insecticide delivery, Replicate 2 ([1]; leaf disc, replicate 2): 12 | Number of hatched larvae 5 days after insecticide delivery, Replicate 3 ([1]; leaf disc, replicate 3): 7 | Hatching rate (%), Replicate 1 [2, 6]: 7.95% | Hatching rate (%), Replicate 2 [2, 7]: 7.41% | Hatching rate (%), Replicate 3 [2, 8]: 7.44% | Number of hatched larvae 5 days after insecticide delivery, Replicate 1 ([2]; leaf disc, replicate 1): 7 | Number of hatched larvae 5 days after insecticide delivery, Replicate 2 ([2]; leaf disc, replicate 2): 10 | Number of hatched larvae 5 days after insecticide delivery, Replicate 3 ([2]; leaf disc, replicate 3): 9 | Hatching rate (%), Replicate 1 ([3]; 4 days after delivery, replicate 1): 64.18% | Hatching rate (%), Replicate 2 ([3]; 4 days after delivery, replicate 2): 61.40% | Hatching rate (%), Replicate 3 ([3]; 4 days after delivery, replicate 3): 60.34% | Number of unhatched larvae 4 days after insecticide delivery, Replicate 1 ([3]; soaked 10 minutes, replicate 1): 25 | Number of unhatched larvae 4 days after insecticide delivery, Replicate 2 ([3]; soaked 10 minutes, replicate 2): 22 | Number of unhatched larvae 4 days after insecticide delivery, Replicate 3 ([3]; soaked 10 minutes, replicate 3): 23 | Number of hatched larvae 4 days after insecticide delivery, Replicate 1 ([4]; Harmonia axyridis egg cards, immersed 30 seconds, replicate 1): 11 | Number of hatched larvae 4 days after insecticide delivery, Replicate 2 ([4]; Harmonia axyridis egg cards, immersed 30 seconds, replicate 2): 9 | Number of hatched larvae 4 days after insecticide delivery, Replicate 3 ([4]; Harmonia axyridis egg cards, immersed 30 seconds, replicate 3): 10 | Hatching rate (%), Replicate 1 ([4]; Harmonia axyridis eggs, 4 days after delivery, replicate 1): 9.91% | Hatching rate (%), Replicate 2 ([4]; Harmonia axyridis eggs, 4 days after delivery, replicate 2): 10.23% | Hatching rate (%), Replicate 3 ([4]; Harmonia axyridis eggs, 4 days after delivery, replicate 3): 10.53% | inhibitory rate against Magnaporthe grisea (in words) [5]: strong inhibitory rate | Average antifungal rate (%) ([5]; 96-well plate, average of 3 replicates): 81.91% | Antifungal rate of Magnaporthe grisea (%), Replicate 1 ([5]; 96-well plate, replicate 1): 75.86% | Antifungal rate of Magnaporthe grisea (%), Replicate 2 ([5]; 96-well plate, replicate 2): 83.08% | Antifungal rate of Magnaporthe grisea (%), Replicate 3 ([5]; 96-well plate, replicate 3): 86.80%
